Results on one substance are retold here after patent publication US20090238881A1, “IONOPHORE ANTIBIOTIC FORMULATIONS” (priority 2000, published 2009).

For data set [1] the following is noted: cited from earlier work.
The conditions of data set [2]: EP 0,139,595 Example 1: 250 g mycelium (10% monensin), 1250 cc propylene glycol, room temperature, 2 hours ultrasound; cited from earlier work.
A short description of data set [3]: Solubility of monensin in propylene glycol. The format is physicochemical. The source says:
There is an indication that 50% of the monensin was found in solution in the propylene glycol.
We have found monopropylene glycol to be a poor solvent of monensin. While we have in NZ 272574/272940 referred to monopropylene glycol as being an antifreeze agent in which the ionophore antibiotic is sparingly soluble, we do appreciate that solubility to the extent referred to in Example 1 of EP 0,139,595 may be achieved when induced with ultrasound or heating.

As for monensin, the solubility in water result in data set [1] is “only slightly soluble in water”. For the same substance, in data set [2], the “monensin found in solution in the propylene glycol” value is given as 50%. Further, in data set [3], the “solubility in monopropylene glycol” value is reported as “poor solvent”.
